Tests used:
progressive solid tumors = test: Phase I study: clinical activity (RECIST 1.1); format: in vivo, human
Description: Response to treatment was assessed using RECIST version 1.1. All patients with measurable disease, who completed 2 cycles of LB-100 and had at least 1 post-baseline tumor assessment, were evaluable for efficacy. Patients receiving any LB-100 were evaluable for safety. The severity of adverse events and laboratory abnormalities is reported according to NCI-CTCAE version 4.0 and coded using Medical Dictionary for Regulatory Activities.

PP2A = PP2A phosphatase assay in activated T cells; format: cell-based, mouse; conditions: 3 hours after stimulation with CD3 and CD28; greater effect in CD8
Description: LB-100 inhibits PP2A activity and enhances mTORC1 activation: PP2A enzymatic activity of isolated CD4 and CD8 cells from mice splenocytes were measured 3 hours after in vitro stimulation with plated CD3 and soluble CD28.
PP2A phosphatase assay—Mouse CD4+ and CD8+ T cells were isolated with CD4 and CD8 isolation kit (StemCell) respectively. Cells were activated using immobilized anti-CD3 (10 ug/ml) and soluble anti-CD28 (2 ug/ml) for three hour. PP2A activity was then evaluated after immunoprecipitation using a malachite green phosphatase assay kit as per the manufacturer's instructions (EMD Millipore).

[1] = of 20 patients with measurable disease

For CN1CCN(C(=O)C2C(C(=O)O)[C@H]3CC[C@@H]2O3)CC1 (stereo partly drawn) [LB-100], the “duration of partial response or stability of disease” value (“duration” below) (progressive solid tumors; atypical carcinoid of the lung, 0.83 mg/m^2) was 5 cycles, the “duration” value (progressive solid tumors; breast cancer, 1.25 mg/m^2) was 4 cycles and the “duration” value (progressive solid tumors; chondrosarcoma, 3.1 mg/m^2) was 8 cycles. For the same molecule, the “duration” value (progressive solid tumors; fibrosarcoma, started at 3.1 mg/m^2, two dose reductions) was 12 cycles, the “duration” value (progressive solid tumors; malignant thymoma, 1.75 mg/m^2) was 8 cycles and the “no progression of indicator lesion(s)” value (progressive solid tumors; [1]) was 16 patients. For the same molecule, the “significant increases in the size of indicator lesion(s) by RECIST criteria” value (progressive solid tumors; [1]) was 3 patients, the “duration” value (progressive solid tumors; ovarian cancer, 1.75 mg/m^2) was 6 cycles and the “duration” value (progressive solid tumors; pancreatic cancer, 0.83 mg/m^2) was 15 cycles. For the same molecule, the partial response (progressive solid tumors; pancreatic carcinoma, noted after 10 cycles, maintained 5 more cycles, of 20 patients) was “One and one”, the “duration” value (progressive solid tumors; testicular cancer, 1.25 mg/m^2) was 5 cycles and the “PP2A enzymatic activity in CD4 and CD8 cells” value (PP2A) was “dose dependent decrease”.
